Source: patent US10947196B2, “Beta adrenergic agonist and methods of using the same” (CURASEN THERAPEUTICS, INC., priority 2019, dated 2021)
Read-outs that look alike come from different tables or passages of the source.

Tests used:
[1] = Hepatocyte stability (dog); format: in vitro ADME; settings: 0.5×10^6 viable cells/mL
Experimental: 10 mM and 100 μM stock solutions of test compound(s) and a positive control were prepared in appropriate solvent (DMSO). In separate conical tubes, the 10 mM test compound and the positive control were diluted to 100 μM by combining 198 μL of 50% acetonitrile/50% water and 2 μL of 10 mM stock. The 100 μM test compound and the positive control were diluted to 30 μM by combining 140 μL of 50% acetonitrile/50% water and 60 μL of 100 μM stock solution. The 100 μM test compound and the positive control were diluted to 10 μM by combining 180 μL of 50% acetonitrile/50% water and 20 μL of 100 μM stock solution. The 100 μM test compound and the positive control were diluted to 3 μM by combining 194 μL of 50% acetonitrile/50% water and 6 μL of 100 μM stock solution.
Incubation medium (William's E Medium supplemented with GlutaMAX) and hepatocyte thawing medium was placed in a 37° C. water bath, and allowed to warm for at least 15 minutes prior to use. A vial of cryopreserved hepatocytes from storage was then removed, ensuring that the vial remains at cryogenic temperatures until thawing process ensues. Cells were thawed by placing the vial in a 37° C. water bath and gently shaking the vial for 2 minutes. After thawing was completed, the vial was sprayed with 70% ethanol and transferred to a biosafety cabinet.
A wide-bore pipette tip was used to transfer hepatocytes into 50 mL conical tube containing thawing medium. The 50 mL conical tube was placed into a centrifuge and spun at 100 g for 10 minutes. Upon completion of spin, the thawing medium was aspirated and the hepatocytes were resuspended in enough incubation medium to yield ˜1.5×10^6 cells/mL.
Using AOPI staining solution, cells were counted and the viable cell density was determined. Cells with poor viability (<75% viability) are not acceptable for use. […]
All calculations were carried out using Microsoft Excel. Peak areas were determined from extracted ion chromatograms. […]
The in vitro half-life (in vitro t1/2) was determined from the slope value: in vitro t1/2=0.693/k

[2] = Rat pharmacokinetic studies; format: in vivo, male SD rats; set-up: AUClast/D: unit not given here; settings: for AUC(0-t) / AUC(0-inf) / C0 / half-life / MRT inf / Vd / Cmax / Tmax: male, SD; for MRT inf: read-out: MRTInf—obs; for Vd: read-out: Vss—obs
Experimental: (§1) The rat pharmacokinetics studies of exemplary compounds 03-3, 03-5, and 03-115 were conducted with male SD rats. These rats were typically about 6-8 weeks old, weighing 200 g to 300 g. Animals were fasted overnight and free access to food 4 hours after dosing. A required volume of vehicle was added to reach the target concentration of the test article and vehicle component to prepare for the dosing. The dosing vehicle was PEG400 or 30% PEG400 in saline for IV, or 0.5% methylcellulose in water for PO. For IV dosing, the animals were administered intravenously via tail vein. For PO dosing, the animals were administered via oral gavage. After dosing, blood sample was collected (˜0.2 mL per time point) through jugular vein or heart puncture. Blood of each sample was transferred into plastic micro centrifuge tubes containing EDTA-K2. Collection tubes with blood samples and anticoagulant were inverted several times for proper mixing of the tube contents and then placed on wet ice. The blood samples were centrifuged at 2000 g for 5 minutes at 4° C. to obtain plasma which was stored in a freezer at −75±15° C. prior to analysis. Samples were analyzed using LC-MS/MS. WinNonlin were used for pharmacokinetic calculations.

[3] = Dog pharmacokinetic studies; format: in vivo, male Beagle dogs; settings: for AUC(0-inf) / Cmax / MRT / Tmax: male, Beagle
Experimental: as §1
Dog pharmacokinetics studies of exemplary compounds 03-3, 03-5, and 03-115 were conducted substantially similarly to the rat pharmacokinetic studies, instead using male Beagle dogs. Animals for PO studies were food fasted overnight prior to dosing and were fed approximately 2 hours after dosing. Animals for IV studies had free access to food and water. Blood samples were collected through venipuncture of peripheral veins except the dosing vein.

SMILES	Hepatocyte stability, Dog [1]	AUClast/D ([2]; IV 1 mg/kg)	AUC—% Extrap—obs ([2]; IV 1 mg/kg)	Cl_obs ([2]; IV 1 mg/kg)	AUClast/D ([2]; PO 5 mg/kg)	AUC—% Extrap—obs ([2]; PO 5 mg/kg)	F ([2]; PO 5 mg/kg)	AUC(0-inf) ([2]; plasma, IV 1 mg/kg)	C0 ([2]; plasma, IV 1 mg/kg)	half-life ([2]; plasma, IV 1 mg/kg)	MRT inf ([2]; plasma, IV 1 mg/kg)	Vd ([2]; plasma, IV 1 mg/kg)	AUC(0-inf) ([2]; plasma, PO 5 mg/kg)	AUC(0-t) ([2]; plasma, PO 5 mg/kg)	Cmax ([2]; plasma, PO 5 mg/kg)	Tmax ([2]; plasma, PO 5 mg/kg)	half-life ([2]; plasma, PO 5 mg/kg)	MRT inf ([2]; plasma, PO 5 mg/kg)	F ([3]; PO 1 mg/kg)	AUC(0-inf) ([3]; plasma, PO 1 mg/kg)	further results
CC(C)(C)NC[C@H](O)c1cccc(C(F)(F)F)n1 [Compound 03-3]	5.3 μL/min/10^6 cells	546	1.14%	30.2 mL/min/kg	845	0.0970%	153%	552 ng·h/mL	388 ng/mL	1.28 h	1.61 h	2.92 L/kg	4230 ng·h/mL	4220 ng·h/mL	818 ng/mL	1.17 h	2.44 h	3.93 h	111%	584 ng·h/mL	AUC(0-t) ([2]; in vivo, IV 1 mg/kg): 546 ng·h/mL; F ([3]; PO 2.5 mg/kg): 194%; Cmax ([3]; plasma, PO 1 mg/kg): 227 ng/mL; MRT ([3]; plasma, PO 1 mg/kg): 1.93 h; Tmax ([3]; plasma, PO 1 mg/kg): 0.5 h; AUC(0-inf) ([3]; plasma, PO 2.5 mg/kg): 1590 ng·h/mL; Cmax ([3]; plasma, PO 2.5 mg/kg): 413 ng/mL; MRT ([3]; plasma, PO 2.5 mg/kg): 3.19 h; Tmax ([3]; plasma, PO 2.5 mg/kg): 0.5 h
CC(C)(C)NC[C@H](O)c1cccc(C#N)n1 [Compound 03-5, (S)-6-(2-(tert-butylamino)-1-hydroxyethyl)picolinonitrile]	5.94-7.63 μL/min/10^6 cells	461	0.457%	37.3 mL/min/kg	450	4.10%	101%	463 ng·h/mL	468 ng/mL	0.644 h	0.873 h	1.89 L/kg	2340 ng·h/mL	2250 ng·h/mL	717 ng/mL	0.75 h	1.61 h	2.62 h	70%	273 ng·h/mL	AUC(0-t) ([2]; plasma, IV 1 mg/kg): 461 ng·h/mL; F ([3]; PO 0.3 mg/kg): 72%; AUC(0-inf) ([3]; plasma, PO 0.3 mg/kg): 55.4 ng·h/mL; Cmax ([3]; plasma, PO 0.3 mg/kg): 43.2 ng/mL; MRT ([3]; plasma, PO 0.3 mg/kg): 1.22 h; Tmax ([3]; plasma, PO 0.3 mg/kg): 0.42 h; Cmax ([3]; plasma, PO 1 mg/kg): 164 ng/mL; MRT ([3]; plasma, PO 1 mg/kg): 1.37 h; Tmax ([3]; plasma, PO 1 mg/kg): 0.33 h
Cc1ncccc1[C@@H](O)CNC(C)(C)C [Compound 03-115]	8.13 μL/min/10^6 cells	–	–	103 mL/min/kg	–	–	23%	–	–	–	–	–	–	–	–	–	–	–	–	–	AUC(0-inf) ([2]; in vivo, IV 1 mg/kg): 164 ng·h/mL; C0 ([2]; in vivo, IV 1 mg/kg): 512 ng/mL; half-life ([2]; in vivo, IV 1 mg/kg): 0.36 h; Vd ([2]; in vivo, IV 1 mg/kg): 2.4 L/kg; AUC(0-inf) ([2]; in vivo, PO 5 mg/kg): 192 ng·h/mL; Cmax ([2]; in vivo, PO 5 mg/kg): 174 ng/mL; Tmax ([2]; in vivo, PO 5 mg/kg): 0.25 h; half-life ([2]; in vivo, PO 5 mg/kg): 1.61 h; MRT inf ([2]; in vivo, PO 5 mg/kg): 1.06 h; F ([3]; PO 0.5 mg/kg): 53%; F ([3]; PO 1.5 mg/kg): 71%; AUC(0-inf) ([3]; in vivo, PO 0.5 mg/kg): 132 ng·h/mL; Cmax ([3]; in vivo, PO 0.5 mg/kg): 72.3 ng/mL; MRT ([3]; in vivo, PO 0.5 mg/kg): 1.82 h; Tmax ([3]; in vivo, PO 0.5 mg/kg): 0.5 h; AUC(0-inf) ([3]; in vivo, PO 1.5 mg/kg): 537 ng·h/mL; Cmax ([3]; in vivo, PO 1.5 mg/kg): 387 ng/mL; MRT ([3]; in vivo, PO 1.5 mg/kg): 1.69 h; Tmax ([3]; in vivo, PO 1.5 mg/kg): 0.33 h
